In article doi:10.1101/2023.11.24.568596v1 (biorxiv, 2023):

Tests used:
Conditions in all cases: binder
AAK1 = AAK1 (Homo sapiens, UniProt Q2M2I8)
BMX = target: T1, BMX (Homo sapiens, UniProt P51813)
T1 sequence (P51813 1-675): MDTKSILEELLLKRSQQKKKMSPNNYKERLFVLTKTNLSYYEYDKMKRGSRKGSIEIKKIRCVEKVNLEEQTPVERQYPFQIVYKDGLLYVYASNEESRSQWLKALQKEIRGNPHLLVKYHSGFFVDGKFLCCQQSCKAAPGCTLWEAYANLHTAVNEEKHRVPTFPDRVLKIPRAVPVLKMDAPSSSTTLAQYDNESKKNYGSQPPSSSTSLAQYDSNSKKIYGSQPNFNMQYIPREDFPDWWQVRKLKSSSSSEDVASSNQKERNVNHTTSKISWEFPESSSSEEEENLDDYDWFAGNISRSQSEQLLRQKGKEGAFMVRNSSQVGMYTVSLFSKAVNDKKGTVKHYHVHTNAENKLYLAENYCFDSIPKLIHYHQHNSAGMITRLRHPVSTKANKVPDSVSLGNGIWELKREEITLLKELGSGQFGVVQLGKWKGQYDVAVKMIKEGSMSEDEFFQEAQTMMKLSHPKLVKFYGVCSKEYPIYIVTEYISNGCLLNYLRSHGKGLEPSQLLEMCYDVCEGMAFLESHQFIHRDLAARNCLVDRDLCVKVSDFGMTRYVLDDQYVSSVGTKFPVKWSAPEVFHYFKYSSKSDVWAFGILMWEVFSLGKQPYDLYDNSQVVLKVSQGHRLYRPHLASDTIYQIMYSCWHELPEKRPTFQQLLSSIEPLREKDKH

CK2a2 = CK2a2 (Homo sapiens, UniProt P19784)
CaMKK2 = CaMKK2 (Homo sapiens, UniProt Q96RR4)
Haspin = target: T2, Haspin (Homo sapiens, UniProt Q8TF76)
T2 sequence (Q8TF76 1-798): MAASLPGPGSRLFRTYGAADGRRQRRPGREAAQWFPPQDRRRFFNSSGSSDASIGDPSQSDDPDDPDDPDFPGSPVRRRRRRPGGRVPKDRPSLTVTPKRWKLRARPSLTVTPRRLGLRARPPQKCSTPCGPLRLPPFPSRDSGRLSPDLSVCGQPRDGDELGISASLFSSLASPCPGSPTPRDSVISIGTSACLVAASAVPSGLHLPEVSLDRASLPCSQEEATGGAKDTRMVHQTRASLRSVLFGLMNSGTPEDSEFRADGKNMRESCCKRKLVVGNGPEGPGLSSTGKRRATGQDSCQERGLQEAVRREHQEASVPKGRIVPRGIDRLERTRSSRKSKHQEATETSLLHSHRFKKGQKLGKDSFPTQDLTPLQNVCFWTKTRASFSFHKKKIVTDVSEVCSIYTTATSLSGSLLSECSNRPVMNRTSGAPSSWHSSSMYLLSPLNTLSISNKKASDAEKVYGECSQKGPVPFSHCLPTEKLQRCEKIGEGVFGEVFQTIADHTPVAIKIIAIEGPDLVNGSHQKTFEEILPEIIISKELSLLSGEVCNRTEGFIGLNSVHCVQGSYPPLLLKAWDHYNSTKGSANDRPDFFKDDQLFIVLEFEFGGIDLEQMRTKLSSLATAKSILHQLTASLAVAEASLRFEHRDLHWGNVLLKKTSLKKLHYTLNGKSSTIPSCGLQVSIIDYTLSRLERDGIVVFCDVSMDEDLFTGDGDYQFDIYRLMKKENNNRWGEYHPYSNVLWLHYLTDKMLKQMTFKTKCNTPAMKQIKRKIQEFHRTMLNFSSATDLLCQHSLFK

PIM3 = PIM3 (Homo sapiens, UniProt Q86V86)
PLK4 = target: T3, PLK4 (Homo sapiens, UniProt O00444)
T3 sequence (O00444 1-970): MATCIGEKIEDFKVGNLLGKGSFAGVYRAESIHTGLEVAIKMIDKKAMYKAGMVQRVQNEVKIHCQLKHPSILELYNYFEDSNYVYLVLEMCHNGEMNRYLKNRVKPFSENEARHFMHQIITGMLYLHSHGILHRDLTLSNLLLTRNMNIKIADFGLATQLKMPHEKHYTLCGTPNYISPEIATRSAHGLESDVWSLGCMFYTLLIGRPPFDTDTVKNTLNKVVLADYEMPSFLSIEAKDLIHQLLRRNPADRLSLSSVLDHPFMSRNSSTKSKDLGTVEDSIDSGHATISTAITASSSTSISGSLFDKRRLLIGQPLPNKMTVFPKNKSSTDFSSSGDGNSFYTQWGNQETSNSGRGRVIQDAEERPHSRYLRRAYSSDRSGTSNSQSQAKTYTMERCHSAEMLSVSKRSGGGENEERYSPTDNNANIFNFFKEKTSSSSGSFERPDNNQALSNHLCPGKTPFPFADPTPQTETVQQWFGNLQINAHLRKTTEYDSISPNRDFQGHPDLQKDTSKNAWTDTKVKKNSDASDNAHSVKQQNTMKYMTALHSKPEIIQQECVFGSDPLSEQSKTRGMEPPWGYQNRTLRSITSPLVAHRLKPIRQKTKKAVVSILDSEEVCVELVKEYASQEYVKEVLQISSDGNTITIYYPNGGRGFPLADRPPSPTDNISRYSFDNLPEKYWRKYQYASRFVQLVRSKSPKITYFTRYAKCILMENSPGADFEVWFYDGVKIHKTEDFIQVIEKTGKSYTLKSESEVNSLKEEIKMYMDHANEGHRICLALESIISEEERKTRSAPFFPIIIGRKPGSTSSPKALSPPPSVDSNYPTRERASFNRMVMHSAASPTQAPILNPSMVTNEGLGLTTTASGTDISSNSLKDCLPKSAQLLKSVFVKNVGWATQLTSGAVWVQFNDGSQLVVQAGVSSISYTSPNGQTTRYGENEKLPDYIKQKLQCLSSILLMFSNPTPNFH

CK2a2, sequence (P19784 whole entry): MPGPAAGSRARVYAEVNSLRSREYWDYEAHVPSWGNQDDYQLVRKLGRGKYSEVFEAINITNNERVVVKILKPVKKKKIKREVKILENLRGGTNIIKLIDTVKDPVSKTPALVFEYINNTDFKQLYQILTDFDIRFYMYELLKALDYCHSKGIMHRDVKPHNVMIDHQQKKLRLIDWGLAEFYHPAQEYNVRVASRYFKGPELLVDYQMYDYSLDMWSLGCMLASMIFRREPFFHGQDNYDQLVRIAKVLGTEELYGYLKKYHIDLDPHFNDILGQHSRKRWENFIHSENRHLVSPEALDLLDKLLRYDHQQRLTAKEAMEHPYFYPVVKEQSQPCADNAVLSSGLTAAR
AAK1, sequence (Q2M2I8 whole entry): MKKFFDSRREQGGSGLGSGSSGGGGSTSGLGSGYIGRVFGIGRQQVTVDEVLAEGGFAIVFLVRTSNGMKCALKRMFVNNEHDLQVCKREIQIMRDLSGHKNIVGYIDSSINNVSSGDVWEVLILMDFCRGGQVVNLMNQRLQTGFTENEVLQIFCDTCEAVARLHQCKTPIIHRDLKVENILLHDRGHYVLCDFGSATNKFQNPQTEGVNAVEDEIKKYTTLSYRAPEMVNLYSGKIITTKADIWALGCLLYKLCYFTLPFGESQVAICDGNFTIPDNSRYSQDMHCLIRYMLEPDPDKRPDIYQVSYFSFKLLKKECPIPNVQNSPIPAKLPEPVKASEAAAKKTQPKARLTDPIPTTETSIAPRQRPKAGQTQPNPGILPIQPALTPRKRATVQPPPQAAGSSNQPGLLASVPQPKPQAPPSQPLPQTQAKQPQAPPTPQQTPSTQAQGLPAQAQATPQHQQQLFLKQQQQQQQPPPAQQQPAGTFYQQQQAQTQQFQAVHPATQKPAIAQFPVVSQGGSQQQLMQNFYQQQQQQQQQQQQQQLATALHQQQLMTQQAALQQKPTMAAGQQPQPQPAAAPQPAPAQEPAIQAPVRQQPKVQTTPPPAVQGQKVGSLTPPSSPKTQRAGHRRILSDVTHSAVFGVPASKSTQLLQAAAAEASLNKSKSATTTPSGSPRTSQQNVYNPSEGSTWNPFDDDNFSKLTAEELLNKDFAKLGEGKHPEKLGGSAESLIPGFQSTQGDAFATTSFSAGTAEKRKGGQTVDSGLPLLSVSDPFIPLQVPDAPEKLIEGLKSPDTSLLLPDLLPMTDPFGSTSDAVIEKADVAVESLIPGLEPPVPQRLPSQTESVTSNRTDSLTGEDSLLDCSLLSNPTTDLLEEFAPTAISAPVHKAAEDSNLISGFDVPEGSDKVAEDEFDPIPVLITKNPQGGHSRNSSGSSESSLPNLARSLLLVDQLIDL
CaMKK2, sequence (Q96RR4 whole entry): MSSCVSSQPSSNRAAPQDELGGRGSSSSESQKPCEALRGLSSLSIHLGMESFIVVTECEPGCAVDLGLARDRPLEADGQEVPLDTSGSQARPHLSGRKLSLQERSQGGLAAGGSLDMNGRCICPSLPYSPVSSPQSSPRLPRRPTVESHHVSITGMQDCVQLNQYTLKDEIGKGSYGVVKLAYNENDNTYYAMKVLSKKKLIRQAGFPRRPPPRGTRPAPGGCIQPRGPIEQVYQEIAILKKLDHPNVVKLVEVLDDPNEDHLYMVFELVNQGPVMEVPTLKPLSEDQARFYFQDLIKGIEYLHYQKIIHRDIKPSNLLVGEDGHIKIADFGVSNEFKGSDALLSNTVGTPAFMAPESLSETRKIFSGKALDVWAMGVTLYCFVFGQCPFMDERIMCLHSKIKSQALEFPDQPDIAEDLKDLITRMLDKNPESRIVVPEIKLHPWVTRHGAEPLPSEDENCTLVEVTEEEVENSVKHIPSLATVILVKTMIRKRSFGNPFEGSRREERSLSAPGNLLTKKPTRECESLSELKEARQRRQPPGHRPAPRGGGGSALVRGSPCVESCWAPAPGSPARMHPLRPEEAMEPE

Question: How did the “ΔTm MRLW5 (20)” value (AAK1) turn out when CNc1ncc2cc(-c3ccc(-c4cccc(C)n4)cc3Cl)c(=O)n(CCCCN)c2n1 [compound 20, MRLW5] was run?
Answer: 1.4 °C

Question: And the “ΔTm MRLW5 (20)” value (BMX)?
Answer: 3.1 °C

Question: And the “ΔTm MRLW5 (20)” value (CK2a2)?
Answer: -0.6 °C

Question: What about the “ΔTm MRLW5 (20)” value (CaMKK2) of the same molecule?
Answer: 1.4 °C

Question: And the “ΔTm MRLW5 (20)” value (Haspin)?
Answer: -0.4 °C

Question: And the “ΔTm MRLW5 (20)” value (PIM3)?
Answer: -1.2 °C

Question: What about the “ΔTm MRLW5 (20)” value (PLK4) of the same molecule?
Answer: 5.2 °C

Question: For CNc1ncc2cc(-c3ccc(-c4cccc(C)n4)cc3Cl)c(=O)n(CCC3CCNCC3)c2n1 [compound 22, 6-(2-Chloro-4-(6-methylpyridin-2-yl)phenyl)-2-(methylamino)-8-(2-(piperidin-4-yl)ethyl)pyrido[2,3-d]pyrimidin-7(8H)-one], which “ΔTm 22” value (AAK1) is on record?
Answer: 2.8 °C

Question: And the “ΔTm 22” value (BMX)?
Answer: 4.1 °C

Question: What about the “ΔTm 22” value (CK2a2) of the same molecule?
Answer: -1.4 °C

Question: What about the “ΔTm 22” value (CaMKK2) of the same molecule?
Answer: 2.3 °C

Question: What about the “ΔTm 22” value (Haspin) of the same molecule?
Answer: -1.2 °C

Question: And the “ΔTm 22” value (PIM3)?
Answer: -1.2 °C

Question: What about the “ΔTm 22” value (PLK4) of the same molecule?
Answer: 7.3 °C

Question: For CNc1ncc2cc(-c3ccc(-c4cccc(C)n4)cc3Cl)c(=O)n(C[C@H]3CC[C@H](N)CC3)c2n1 [compound 23, 23], which “ΔTm 23” value (AAK1) is on record?
Answer: 3.3 °C

Question: What about the “ΔTm 23” value (BMX) of the same molecule?
Answer: 3.4 °C

Question: And the “ΔTm 23” value (CK2a2)?
Answer: -0.9 °C

Question: What about the “ΔTm 23” value (CaMKK2) of the same molecule?
Answer: 4.9 °C

Question: And the “ΔTm 23” value (Haspin)?
Answer: 1.5 °C

Question: And the “ΔTm 23” value (PIM3)?
Answer: 0.3 °C

Question: What about the “ΔTm 23” value (PLK4) of the same molecule?
Answer: 7.1 °C

Question: How did the “ΔTm MR24 (24)” value (AAK1) turn out when Cc1cccc(-c2ccc(-c3cc4cnc(NC(CO)CO)nc4n(CCCCN)c3=O)c(Cl)c2)n1 [compound 24, 8-(4-Aminobutyl)-6-(2-chloro-4-(6-methylpyridin-2-yl)phenyl)-2-((1,3-dihydroxypropan-2-yl)amino)pyrido[2,3-d]pyrimidin-7(8H)-one] was run?
Answer: -0.4 °C

Question: What about the “ΔTm MR24 (24)” value (BMX) of the same molecule?
Answer: 0.6 °C

Question: And the “ΔTm MR24 (24)” value (CK2a2)?
Answer: -2.0 °C

Question: And the “ΔTm MR24 (24)” value (CaMKK2)?
Answer: 0.2 °C

Question: What about the “ΔTm MR24 (24)” value (Haspin) of the same molecule?
Answer: -1.4 °C

Question: And the “ΔTm MR24 (24)” value (PIM3)?
Answer: -1.9 °C

Question: What about the “ΔTm MR24 (24)” value (PLK4) of the same molecule?
Answer: 1.3 °C

Question: What does the source list for Cc1cccc(-c2ccc(-c3cc4cnc(NCCCc5ccc(N)cc5)nc4n(CCCCN)c3=O)c(Cl)c2)n1 [compound 25, 8-(4-Aminobutyl)-2-((3-(4-aminophenyl)propyl)amino)-6-(2-chloro-4-(6-methylpyridin-2-yl)phenyl)pyrido[2,3-d]pyrimidin-7(8H)-one]?
Answer: ΔTm 25 (AAK1): 0.8 °C; ΔTm 25 (BMX): 3.1 °C; ΔTm 25 (CK2a2): -1.9 °C; ΔTm 25 (CaMKK2): 3.3 °C; ΔTm 25 (Haspin): 1.9 °C; ΔTm 25 (PIM3): -0.8 °C; ΔTm 25 (PLK4): 6.7 °C

Question: What does the source list for Cc1cccc(-c2ccc(-c3cc4cnc(NCCCN5CCOCC5)nc4n(CCCCN)c3=O)c(Cl)c2)n1 [compound 26, MR26]?
Answer: ΔTm MR26 (26) (AAK1): -0.2 °C; ΔTm MR26 (26) (BMX): 2.4 °C; ΔTm MR26 (26) (CK2a2): -1.0 °C; ΔTm MR26 (26) (CaMKK2): 1.5 °C; ΔTm MR26 (26) (Haspin): -1.5 °C; ΔTm MR26 (26) (PIM3): -0.1 °C; ΔTm MR26 (26) (PLK4): 5.1 °C
